Counter-ions that a name gives are not always drawn.
Assays:
[1] = Measured solubility of bendamustine HCl in the diluent/solubilizer combination at room temperature; type: physicochemical; settings: aqueous with cosolvent or surfactant or cyclodextrin
Description: The solubility of the diluent/solubilizer combination far exceeded the bendamustine concentration, thus assuring the avoidance of precipitated drug prior to or during administration. As will be appreciated by those of ordinary skill, as the concentration of solubilizers increases with respect to the total volume in small administration doses, the solubility of the bendamustine is maintained.
Bendamustine formulations containing the above ingredients are capable of delivering approximately 360 mg of the drug as the HCl salt in volumes of pharmaceutically acceptable diluent ranging from about 120 ml down to about 15 ml.

[2] = Observation of precipitation in the IV fluid during administration to patient; type: physicochemical
Description: In this example, a patient diagnosed with chronic lymphocytic leukemia (CLL) and having chronic kidney disease (GFR<30 ml/min/1.73 m^2) is begun on a treatment protocol with bendamustine. In particular, the patient is administered 360 mg of bendamustine as part of an approximately 114.4 ml infusion on days 1 and 2 of a 28 day cycle. The intravenous formulation is prepared by drawing up 14.4 ml of an RTU (ready to use) liquid containing bendamustine HCl 25 mg/ml, PG 103.2 mg/ml, PEG 1013.4 mg/ml, monothioglycerol 5 mg/ml and 0.08 mg/ml NaOH and mixing it into a 100 ml bag containing 0.9% NaCl. The final bendamustine concentration for the IV fluid is 3.15 mg/ml. The infusion is administered to the patient in less than 15 minutes.
The process of Example 1 is repeated except that the IV infusion volume is approximately 64.4 ml. The same 14.4 ml of an RTU (ready to use) liquid containing bendamustine HCl 25 mg/ml, PG 103.2 mg/ml, PEG 1013.4 mg/ml, monothioglycerol 5 mg/ml and 0.08 mg/ml NaOH is used and it is mixed into a 50 ml bag containing 0.9% NaCl. The final bendamustine concentration for the IV fluid is 5.59 mg/ml. The infusion is administered to the patient in less than 10 minutes.

Cn1c(CCCC(=O)O)nc2cc(N(CCCl)CCCl)ccc21 [bendamustine HCl, Bendamustine HCl]
solubility ([1]; half normal saline/dextrose diluent/solubilizer combination, 50 ml half normal saline/dextrose + 1 ml of 25 mg/ml bendamustine HCl and solubilizers (PG, PEG 400)): 14.2 mg/mL | solubility ([1]; normal saline diluent/solubilizer combination, 50 ml normal saline + 1 ml of 25 mg/ml bendamustine HCl and solubilizers (PG, PEG 400)): 10.5 mg/mL | precipitation of bendamustine in the IV fluid during administration ([2]; 14.4 ml RTU liquid (25 mg/ml) in 50 ml 0.9% NaCl, final 5.59 mg/ml, infusion in less than 10 minutes): No precipitated bendamustine is observed | precipitation of bendamustine in the IV fluid during administration ([2]; 14.4 ml RTU liquid (25 mg/ml) in 100 ml 0.9% NaCl, final 3.15 mg/ml, infusion in less than 15 minutes): No precipitated bendamustine is observed

Reference: US9579384B2, “Method of treating bendamustine-responsive conditions in patients requiring reduced volumes for administration” (Eagle Pharmaceuticals, Inc., priority 2012, dated 2017)
